Patent US6541450B1, “Parathyroid hormone analogues for the treatment of osteoporosis” (National Research Council of Canada, priority 1994, dated 2003)
Where two headings read alike, the source gives them in different places. Where a SMILES comes first, the peptide text is derived from it. Bridges are numbered along the chain shown (N, C = ends). Where no end group is shown, it is not given here.

Columns and labels:
[1] = molecular target: T1, adenylyl cyclase, ROS 17/2 cells (Rattus norvegicus, UniProt P25961); assay: Adenylyl cyclase stimulation, [3H]-cyclic AMP production in ROS 17/2 cells; type: cell-based
T1 sequence (P25961 27-591): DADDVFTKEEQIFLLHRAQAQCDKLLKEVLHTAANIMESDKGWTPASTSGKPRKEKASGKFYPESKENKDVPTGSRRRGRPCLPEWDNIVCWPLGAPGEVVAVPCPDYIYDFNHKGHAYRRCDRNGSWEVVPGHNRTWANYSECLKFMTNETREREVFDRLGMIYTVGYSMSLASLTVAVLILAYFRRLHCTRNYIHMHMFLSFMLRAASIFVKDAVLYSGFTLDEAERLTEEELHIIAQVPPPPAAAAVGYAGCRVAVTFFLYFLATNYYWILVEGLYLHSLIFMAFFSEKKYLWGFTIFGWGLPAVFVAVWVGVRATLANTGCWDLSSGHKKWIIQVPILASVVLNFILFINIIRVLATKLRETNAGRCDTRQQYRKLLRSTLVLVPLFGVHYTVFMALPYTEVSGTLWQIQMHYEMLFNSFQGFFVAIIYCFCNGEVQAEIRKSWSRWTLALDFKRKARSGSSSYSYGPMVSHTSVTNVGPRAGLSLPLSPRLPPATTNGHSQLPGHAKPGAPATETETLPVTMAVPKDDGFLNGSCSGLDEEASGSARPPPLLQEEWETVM

[2] = system: anesthetized female Sprague-Dawley rats; assay: Hypotensive effect, tail artery pressure in anaesthetized rats
Experimental: Female Sprague-Dawley rats (weighing over 290 g) were anaesthetized with intraperitoneally injected sodium pentobarbital (65 mg/kg body weight). Rectal temperature was monitored with a YS1402 thermistor (Yellow Springs Instrument Co., Inc. Yellow Springs, Ohio) and maintained between 36.0 and 38.5° C. throughout the experiment. Ear pinna temperature was also monitored using a YSi banjo thermistor. The tail artery was exposed to cannulated with a Jelco 25-gIV catheter (Johnson and Johnson Medical Inc., Arlington, Tex.) and connected to a Statham pressure transducer, the signals from which were recorded digitally with a Biopac Systems MP100 Monitor (Harvard Instruments, Saint Laurent, QC, Canada). For intravenous injection of PTH or one of its fragments, a femoral vein was also exposed. After surgery, the rat was allowed to stabilize for 8 min after which PTH or one of its fragments (dissolved in acidified saline containing 0.001 N HCl) was injected into the femoral vein or under the skin of the abdomen. Data were collected for 12 min after intravenous injection or for 22 min after subcutaneous injection.

PTH receptor [3] = molecular target: T2, PTH receptor (rat (ROS 17/2 rat osteosarcoma cell …, UniProt P25961)); assay: cell-based or functional assay
PTH receptor [4] = molecular target: T2, PTH receptor; assay: cell-based or functional assay; remark: listed apart in the source
[5] = ROS 17/2 cells, concentration for half-maximal increase in AC activity, read-out: Adenylyl Cyclase (EC50)

Molecule: CC[C@H](C)[C@H](NC(=O)[C@H](CCC(=O)O)NC(=O)[C@H](CO)NC(=O)[C@@H](NC(=O)[C@@H](N)CO)C(C)C)C(=O)N[C@@H](CCC(N)=O)C(=O)N[C@@H](CC(C)C)C(=O)N[C@@H](CCSC)C(=O)N[C@@H](Cc1c[nH]cn1)C(=O)N[C@@H](CC(N)=O)C(=O)N[C@@H](CC(C)C)C(=O)NCC(=O)N[C@@H](CCCCN)C(=O)N[C@@H](Cc1c[nH]cn1)C(=O)N[C@@H](CC(C)C)C(=O)N[C@@H](CC(N)=O)C(=O)N[C@@H](CO)C(=O)N[C@@H](CCSC)C(=O)N[C@@H](CCC(=O)O)C(=O)N[C@@H](CCCNC(=N)N)C(=O)N[C@H](C(=O)N[C@@H](CCC(=O)O)C(=O)N[C@@H](Cc1c[nH]c2ccccc12)C(=O)N[C@@H](CC(C)C)C(=O)N[C@@H](CCCNC(=N)N)C(=O)N[C@H]1CCCCNC(=O)C[C@@H](C(=O)N[C@H](C(N)=O)C(C)C)NC(=O)[C@H](CCC(N)=O)NC(=O)[C@H](CC(C)C)NC(=O)[C@H](CC(C)C)NC1=O)C(C)C [compound 4, [Leu^27]cyclo(Lys^26-Asp^30)-hPTH-(1-31)-NH2] (H-SVSEIQLMHNLGKHLNSMERVEWLRKLLQDV-NH2; lactam 26-30; N-terminus assumed)
- EC50 [1, 5]: 3 nM
- EC50 ([1]; ROS cell line, read-out: EC50, AC-stimulating activity): 17 ± 3.3 nM
- hypotensive action, in words ([2]; subcutaneous injection): enhanced hypotensive effects

Molecule: CC[C@H](C)[C@H](NC(=O)[C@H](CCC(=O)O)NC(=O)[C@H](CO)NC(=O)[C@@H](NC(=O)[C@@H](N)CO)C(C)C)C(=O)N[C@@H](CCC(N)=O)C(=O)N[C@@H](CC(C)C)C(=O)N[C@@H](CCSC)C(=O)N[C@@H](Cc1c[nH]cn1)C(=O)N[C@@H](CC(N)=O)C(=O)N[C@@H](CC(C)C)C(=O)NCC(=O)N[C@@H](CCCCN)C(=O)N[C@@H](Cc1c[nH]cn1)C(=O)N[C@@H](CC(C)C)C(=O)N[C@@H](CC(N)=O)C(=O)N[C@@H](CO)C(=O)N[C@@H](CCSC)C(=O)N[C@@H](CCC(=O)O)C(=O)N[C@@H](CCCN=C(N)N)C(=O)N[C@H](C(=O)N[C@H]1CCC(=O)NCCCC[C@@H](C(=O)N[C@@H](CC(C)C)C(=O)N[C@@H](CC(C)C)C(=O)N[C@@H](CCC(N)=O)C(=O)N[C@@H](CC(=O)O)C(N)=O)NC(=O)[C@H](CCCN=C(N)N)NC(=O)[C@H](CC(C)C)NC(=O)[C@H](Cc2c[nH]c3ccccc23)NC1=O)C(C)C [compound 8, [Leu^27]cyclo(Glu^22Lys^26)-hPTH-(1-30)-NH2] (H-SVSEIQLMHNLGKHLNSMERVEWLRKLLQD-NH2; lactam 22-26)
- EC50 [1, 5]: 20 nM
- rate of transport of subcutaneously injected peptide to the vascular system ([2]; subcutaneous, 0.8 nmol/100 g of body weight): significantly (p<0.05) reduced rates of transport

Molecule: CC[C@H](C)[C@H](NC(=O)[C@H](CCC(=O)O)NC(=O)[C@H](CO)NC(=O)[C@@H](NC(=O)[C@@H](N)CO)C(C)C)C(=O)N[C@@H](CCC(N)=O)C(=O)N[C@@H](CC(C)C)C(=O)N[C@@H](CCSC)C(=O)N[C@@H](Cc1c[nH]cn1)C(=O)N[C@@H](CC(N)=O)C(=O)N[C@@H](CC(C)C)C(=O)NCC(=O)N[C@@H](CCCCN)C(=O)N[C@@H](Cc1c[nH]cn1)C(=O)N[C@@H](CC(C)C)C(=O)N[C@@H](CC(N)=O)C(=O)N[C@@H](CO)C(=O)N[C@@H](CCSC)C(=O)N[C@@H](CCC(=O)O)C(=O)N[C@@H](CCCN=C(N)N)C(=O)N[C@H](C(=O)N[C@H]1CCC(=O)NCCCC[C@@H](C(=O)N[C@@H](CC(C)C)C(=O)N[C@@H](CC(C)C)C(=O)N[C@@H](CCC(N)=O)C(=O)N[C@@H](CC(=O)O)C(=O)N[C@H](C(N)=O)C(C)C)NC(=O)[C@H](CCCN=C(N)N)NC(=O)[C@H](CC(C)C)NC(=O)[C@H](Cc2c[nH]c3ccccc23)NC1=O)C(C)C [peptide 3, [Leu^27]cyclo(Glu^22-Lys^26)-hPTH-(1-31)-NH2] (H-SVSEIQLMHNLGKHLNSMERVEWLRKLLQDV-NH2; lactam 22-26)
- EC50 [1, 5]: 3 nM
- bioavailability, in words ([2]; subcutaneous, 0.8 nmol/100 g, inferred from time to minimum bp): increased bioavailability

Molecule: CC[C@H](C)[C@H](NC(=O)[C@H](CCC(=O)O)NC(=O)[C@H](CO)NC(=O)[C@@H](NC(=O)[C@H](CO)NC(C)=O)C(C)C)C(=O)N[C@@H](CCC(N)=O)C(=O)N[C@@H](CC(C)C)C(=O)N[C@@H](CCSC)C(=O)N[C@@H](Cc1c[nH]cn1)C(=O)N[C@@H](CC(N)=O)C(=O)N[C@@H](CC(C)C)C(=O)NCC(=O)N[C@@H](CCCCN)C(=O)N[C@@H](Cc1c[nH]cn1)C(=O)N[C@@H](CC(C)C)C(=O)N[C@@H](CC(N)=O)C(=O)N[C@@H](CO)C(=O)N[C@@H](CCSC)C(=O)N[C@@H](CCC(=O)O)C(=O)N[C@@H](CCCNC(=N)N)C(=O)N[C@H](C(=O)N[C@H]1CCC(=O)NCCCC[C@@H](C(=O)N[C@@H](CC(C)C)C(=O)N[C@@H](CC(C)C)C(=O)N[C@@H](CCC(N)=O)C(=O)N[C@@H](CC(=O)O)C(=O)N[C@H](C(N)=O)C(C)C)NC(=O)[C@H](CCCNC(=N)N)NC(=O)[C@H](CC(C)C)NC(=O)[C@H](Cc2c[nH]c3ccccc23)NC1=O)C(C)C [α-acetyl-[Leu^27]cyclo(Glu^22—Lys^26)—hPTH—(1-31)-NH2] (Ac-SVSEIQLMHNLGKHLNSMERVEWLRKLLQDV-NH2; lactam 22-26)
- EC50 [1, 5]: 24 nM

B1: [Leu^27]cyclo(Lys^26-Asp^30)-hPTH-(1-31)-NH2 (peptide)
peptide: SVSEIQLMHNLGKHLNSMERVEWLRKLLQDV-NH2
modifications: lactam 26-30; N-terminus assumed
SMILES: CC[C@H](C)[C@H](NC(=O)[C@H](CCC(=O)O)NC(=O)[C@H](CO)NC(=O)[C@@H](NC(=O)[C@@H](N)CO)C(C)C)C(=O)N[C@@H](CCC(N)=O)C(=O)N[C@@H](CC(C)C)C(=O)N[C@@H](CCSC)C(=O)N[C@@H](Cc1c[nH]cn1)C(=O)N[C@@H](CC(N)=O)C(=O)N[C@@H](CC(C)C)C(=O)NCC(=O)N[C@@H](CCCCN)C(=O)N[C@@H](Cc1c[nH]cn1)C(=O)N[C@@H](CC(C)C)C(=O)N[C@@H](CC(N)=O)C(=O)N[C@@H](CO)C(=O)N[C@@H](CCSC)C(=O)N[C@@H](CCC(=O)O)C(=O)N[C@@H](CCCNC(=N)N)C(=O)N[C@H](C(=O)N[C@@H](CCC(=O)O)C(=O)N[C@@H](Cc1c[nH]c2ccccc12)C(=O)N[C@@H](CC(C)C)C(=O)N[C@@H](CCCNC(=N)N)C(=O)N[C@H]1CCCCNC(=O)C[C@@H](C(=O)N[C@H](C(N)=O)C(C)C)NC(=O)[C@H](CCC(N)=O)NC(=O)[C@H](CC(C)C)NC(=O)[C@H](CC(C)C)NC1=O)C(C)C
- adenylyl cyclase stimulation, EC50 (PTH receptor [3]): 17 nM

B2: [Leu^27]-hPTH-(1-31)-NH2 (peptide)
peptide: SVSEIQLMHNLGKHLNSMERVEWLRKLLQDV-NH2
- AC activity in the ROS cell line, EC50 (PTH receptor [3]): 11.5 nM

B3: [Leu^27]cyclo(Glu^22-Lys^26)-hPTH-(1-31)-NH2 (peptide)
peptide: SVSEIQLMHNLGKHLNSMERVEWLRKLLQDV-NH2
modifications: lactam 22-26; N-terminus assumed
SMILES: CC[C@H](C)[C@H](NC(=O)[C@H](CCC(=O)O)NC(=O)[C@H](CO)NC(=O)[C@@H](NC(=O)[C@@H](N)CO)C(C)C)C(=O)N[C@@H](CCC(N)=O)C(=O)N[C@@H](CC(C)C)C(=O)N[C@@H](CCSC)C(=O)N[C@@H](Cc1c[nH]cn1)C(=O)N[C@@H](CC(N)=O)C(=O)N[C@@H](CC(C)C)C(=O)NCC(=O)N[C@@H](CCCCN)C(=O)N[C@@H](Cc1c[nH]cn1)C(=O)N[C@@H](CC(C)C)C(=O)N[C@@H](CC(N)=O)C(=O)N[C@@H](CO)C(=O)N[C@@H](CCSC)C(=O)N[C@@H](CCC(=O)O)C(=O)N[C@@H](CCCNC(=N)N)C(=O)N[C@H](C(=O)N[C@H]1CCC(=O)NCCCC[C@@H](C(=O)N[C@@H](CC(C)C)C(=O)N[C@@H](CC(C)C)C(=O)N[C@@H](CCC(N)=O)C(=O)N[C@@H](CC(=O)O)C(=O)N[C@H](C(N)=O)C(C)C)NC(=O)[C@H](CCCNC(=N)N)NC(=O)[C@H](CC(C)C)NC(=O)[C@H](Cc2c[nH]c3ccccc23)NC1=O)C(C)C
- AC-stimulating activity, EC50 (PTH receptor [3]): 3.3 nM
- Adenylyl Cyclase (EC50) (PTH receptor [4]): 3 nM
